In patent US9999222B2, “Herbicidal combination comprising azines” (BASF SE, priority 2014, dated 2018):
Like-named read-outs stand apart in the source and are kept apart here.

Experiments:
Assay in all cases: Greenhouse test, pre-emergence treatment
[1] = test system: CENCY; format: in vivo; settings: 480 h, individual, read-out: observed % activity 20 DAT
[2] = test system: GERPU; format: in vivo, Geranium pusillum; settings: Geranium pusillum, pre-emergence, 480 h
Text: (§1) The culture containers used were plastic flowerpots containing loamy sand with approximately 3.0% of humus as the substrate. The seeds of the test plants were sown separately for each species.
(§2) For the pre-emergence treatment, the active ingredients, which had been suspended or emulsified in water, were applied directly after sowing by means of finely distributing nozzles. The containers were irrigated gently to promote germination and growth and subsequently covered with transparent plastic hoods until the plants had rooted. This cover caused uniform germination of the test plants, unless this had been impaired by the active ingredients.
(§3) Depending on the species, the plants were kept at 10-25° C. or 20-35° C., respectively.
(§4) The test period extended over 2 to 4 weeks. During this time, the plants were tended, and their response to the individual treatments was evaluated.
(§5) Evaluation was carried out using a scale from 0 to 100. 100 means no emergence of the plants, or complete destruction of at least the aerial moieties, and 0 means no damage, or normal course of growth. A moderate herbicidal activity is given at values of at least 60, a good herbicidal activity is given at values of at least 70, and a very good herbicidal activity is given at values of at least 85.
(§6) The respective stated components a and b, and if appropriate, c were formulated as a 10% by weight strength emulsion concentrate and, with addition of the amount of solvent system, introduced into the spray liquor used for applying the active compound.
(§7) In the examples, the solvent used was water.
(§8) In the examples below, using the method of S. R. Colby (1967) “Calculating synergistic and antagonistic responses of herbicide combinations”, Weeds 15, p. 22ff., the value E, which is expected if the activity of the individual active compounds is only additive, was calculated. E=X+Y−(X·Y/100) where • X=percent activity using active compound a at an application rate A; • Y=percent activity using active compound b at an application rate B; • E=expected activity (in %) by a+b at application rates A+B.
(§9) If the value found experimentally is higher than the value E calculated according to Colby, a synergistic effect is present.

[3] = test system: IPOHE; format: in vivo, Ipomoea hederacea; settings: Ipomoea hederacea, 480 h
Text: as §1, §2, §3, §4, §5, §6, §7, §8, §9

[4] = test system: ABUTH; format: in vivo, Abutilon theophrasti; settings: Abutilon theophrasti, 480 h
Text: as §1, §2, §3, §4, §5, §6, §7, §8, §9

[5] = test system: KCHSC; format: in vivo, Kochia scoparia; settings: Bassia scoparia, pre-emergence, 480 h
Text: as §1, §2, §3, §4, §5, §6, §7, §8, §9

[6] = test system: ANTAR; format: in vivo; settings: Anthemis arvensis, 480 h, 20 DAT, read-out: observed % activity
Text: as §1, §2, §3, §4, §5, §6, §7, §8, §9

[7] = test system: EPHHL; format: in vivo, Euphorbia heterophylla; settings: Euphorbia heterophylla, pre-emergence, 480 h
Text: as §1, §2, §3, §4, §5, §6, §7, §8, §9

[8] = test system: GALAP; format: in vivo, Galium aparine; settings: Galium aparine, pre-emergence, 480 h
Text: as §1, §2, §3, §4, §5, §6, §7, §8, §9

[9] = test system: SIDRH; format: in vivo, Sida rhombifolia; settings: Sida rhombifolia, pre-emergence, 480 h, 20 DAT, read-out: observed % activity
Text: as §1, §2, §3, §4, §5, §6, §7, §8, §9

[10] = test system: COMBE; format: in vivo, Commelina benghalensis; settings: Commelina benghalensis, pre-emergence, 480 h
Text: as §1, §2, §3, §4, §5, §6, §7, §8, §9

[11] = test system: POLCO; format: in vivo, Polygonum convolvulus; settings: Fallopia convolvulus, pre-emergence, 480 h
Text: as §1, §2, §3, §4, §5, §6, §7, §8, §9

[12] = 25 g ai/ha, 20 DAT, read-out: observed % activity
[13] = 50 g ai/ha, 20 DAT, read-out: observed % activity
[14] = 250 g ai/ha, 20 DAT, read-out: observed % activity
[15] = 500 g ai/ha, 20 DAT, read-out: observed % activity

Structure (SMILES): CS(=O)(=O)c1cc(C(F)(F)F)ccc1C(=O)c1cnoc1C1CC1 [isoxaflutole]
- inhibition at 25 g/ha ([1]; use rate 25 g ai/ha): 20%
- inhibition at 50 g/ha ([1]; use rate 50 g ai/ha): 60%
- inhibition at 25 g/ha [2, 12]: 0%
- inhibition at 50 g/ha [2, 13]: 45%
- inhibition at 25 g/ha ([2]; GERPU, individual, use rate 25 g ai/ha, read-out: observed % activity 20 DAT): 70%
- inhibition at 50 g/ha ([2]; GERPU, individual, use rate 50 g ai/ha, read-out: observed % activity 20 DAT): 50%
- inhibition at 50 g/ha ([3]; IPOHE, individual, use rate 50 g ai/ha, read-out: observed % activity 20 DAT): 35%
- inhibition at 25 g/ha [4, 12]: 98%
- inhibition at 50 g/ha ([4]; ABUTH, individual, use rate 50 g ai/ha, read-out: observed % activity 20 DAT): 95%
- inhibition at 25 g/ha [5, 12]: 98%
- inhibition at 50 g/ha [5, 13]: 98%
- inhibition at 25 g/ha ([5]; KCHSC, individual, use rate 25 g ai/ha, read-out: observed % activity 20 DAT): 98%
- inhibition at 50 g/ha ([5]; KCHSC, individual, use rate 50 g ai/ha, read-out: observed % activity 20 DAT): 98%
- inhibition at 25 g/ha ([6]; 25 g ai/ha): 95%
- inhibition at 50 g/ha ([6]; 50 g ai/ha): 98%
- inhibition at 25 g/ha [7, 12]: 85%
- inhibition at 50 g/ha [7, 13]: 85%
- inhibition at 25 g/ha ([7]; EPHHL, individual, use rate 25 g ai/ha, read-out: observed % activity 20 DAT): 65%
- inhibition at 50 g/ha ([7]; EPHHL, individual, use rate 50 g ai/ha, read-out: observed % activity 20 DAT): 70%
- inhibition at 25 g/ha [8, 12]: 40%
- inhibition at 25 g/ha ([8]; GALAP, individual, use rate 25 g ai/ha, read-out: observed % activity 20 DAT): 40%
- inhibition at 50 g/ha ([8]; GALAP, individual, use rate 50 g ai/ha, read-out: observed % activity 20 DAT): 70%
- inhibition at 25 g/ha ([9]; 25 g ai/ha): 90%
- inhibition at 50 g/ha ([9]; 50 g ai/ha): 98%
- inhibition at 25 g/ha [10, 12]: 85%
- inhibition at 50 g/ha [10, 13]: 80%
- inhibition at 50 g/ha ([10]; COMBE, individual, use rate 50 g ai/ha, read-out: observed % activity 20 DAT): 45%
- inhibition at 25 g/ha [11, 12]: 0%
- inhibition at 50 g/ha [11, 13]: 30%
- inhibition at 25 g/ha ([11]; POLCO, individual, use rate 25 g ai/ha, read-out: observed % activity 20 DAT): 0%
- inhibition at 50 g/ha ([11]; POLCO, individual, use rate 50 g ai/ha, read-out: observed % activity 20 DAT): 0%

Structure (SMILES): Cc1ccc(NC(=O)N(C)C)cc1Cl [chlorotoluron]
- inhibition at 125 g/ha ([1]; use rate 125 g ai/ha): 20%
- inhibition at 250 g/ha ([1]; use rate 250 g ai/ha): 0%
- inhibition at 250 g/ha [2, 14]: 25%
- inhibition at 500 g/ha [2, 15]: 20%
- inhibition at 125 g/ha ([2]; GERPU, individual, use rate 125 g ai/ha, read-out: observed % activity 20 DAT): 25%
- inhibition at 250 g/ha ([2]; GERPU, individual, use rate 250 g ai/ha, read-out: observed % activity 20 DAT): 25%
- inhibition at 500 g/ha [3, 15]: 0%
- inhibition at 250 g/ha ([3]; IPOHE, individual, use rate 250 g ai/ha, read-out: observed % activity 20 DAT): 0%
- inhibition at 250 g/ha [4, 14]: 0%
- inhibition at 500 g/ha [4, 15]: 0%
- inhibition at 125 g/ha ([4]; ABUTH, individual, use rate 125 g ai/ha, read-out: observed % activity 20 DAT): 0%
- inhibition at 250 g/ha ([4]; ABUTH, individual, use rate 250 g ai/ha, read-out: observed % activity 20 DAT): 0%
- inhibition at 250 g/ha [5, 14]: 20%
- inhibition at 500 g/ha [5, 15]: 50%
- inhibition at 125 g/ha ([5]; KCHSC, individual, use rate 125 g ai/ha, read-out: observed % activity 20 DAT): 15%
- inhibition at 250 g/ha ([6]; 250 g ai/ha): 45%
- inhibition at 500 g/ha ([6]; 500 g ai/ha): 45%
- inhibition at 250 g/ha [7, 14]: 0%
- inhibition at 250 g/ha ([7]; EPHHL, individual, use rate 250 g ai/ha, read-out: observed % activity 20 DAT): 15%
- inhibition at 500 g/ha [8, 15]: 50%
- inhibition at 125 g/ha ([8]; GALAP, individual, use rate 125 g ai/ha, read-out: observed % activity 20 DAT): 25%
- inhibition at 250 g/ha ([8]; GALAP, individual, use rate 250 g ai/ha, read-out: observed % activity 20 DAT): 30%
- inhibition at 250 g/ha ([9]; 250 g ai/ha): 0%
- inhibition at 500 g/ha ([9]; 500 g ai/ha): 0%
- inhibition at 250 g/ha [10, 14]: 20%
- inhibition at 125 g/ha ([10]; COMBE, individual, use rate 125 g ai/ha, read-out: observed % activity 20 DAT): 0%
- inhibition at 250 g/ha ([10]; COMBE, individual, use rate 250 g ai/ha, read-out: observed % activity 20 DAT): 0%
- inhibition at 250 g/ha [11, 14]: 0%
- inhibition at 500 g/ha [11, 15]: 20%
- inhibition at 250 g/ha ([11]; POLCO, individual, use rate 250 g ai/ha, read-out: observed % activity 20 DAT): 0%
